The values below come from patent publication US7745446B2, “Pyrazolo[1,5-c]pyrimidines” (Bayer Schering Pharma Aktiengesellschaft, priority 2004, dated 2010).

One test addresses T1, GST-ΔPH-Akt1 (Homo sapiens, UniProt P31749).
T1 construct: named GST-deltaPH-Akt1; 107-480aa; cloned in the pAcGl vector; GST (N); made in house; host or cells: SF9 insect cells (baculovirus vector pAcG1), co-expressed with PDK1
The experiment in a line: Biochemical ΔPH Akt1 assay (flashplate, 33P incorporation into histone 2B). Conditions: 100 nM ATP, histone 2B substrate; read-out: ΔPHAkt1 inhibition: IC50. A digest of the protocol: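 The enzyme was GST-fused human Akt1 lacking the PH domain (aa 107–480), co-expressed with PDK1 in Sf9 cells, at 100 ng/well, with 100 ng/well histone 2B substrate and 100 nM ATP including 33P-ATP. 33P incorporation was counted on scintillant-coated flashplates.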

A further test deals with MCF7 cells. The experiment in a line: Cellular proliferation/cytotoxicity assay (Alamar Blue), MCF7. The note with it: Homo sapiens, MCF7, 48 h, read-out: Anti-proliferative/cytotoxic activity: IC50 MCF7.
For test [1], the target named is T2, full-length Akt1 (active) (Homo sapiens, UniProt P31749).
T2 construct: recombinant full-length human Akt1, containing N-terminal His6 tag; His6 (N); GST (N); purchased Upstate, UK #14-276; host or cells: baculovirus infected Sf21 insect cells
The experiment in a line: Biochemical Akt1 assay (full-length Akt1 active, flashplate, Crosstide). Conditions: 100 nM ATP, Crosstide substrate; read-out: Akt1 inhibition (full-length Akt1, active): IC50. The text has this:
For the biochemical Akt1 assay recombinant full-length human Akt1, containing N-terminal His6 tag is cloned and expressed in baculovirus infected Sf21 insect cells. Akt1 is activated with GST-MAPKAP-K2 and PDK1, and repurified on Ni2+/NTA-agrose and glutathioneagarose (Upstate, UK; #14-276).
In order to study the inhibition of Akt1 (full-length version) according to the invention, a flashplate-based assay has been developed.
The full-length Akt1 assay is a biochemical assay using Akt1 N-terminally fused to GST and co-expressed with PDKI in insect cells. The Akt1 assay is run in 96 well plates by incubating 500 ng/well GST-Akt1, 1 μM Crosstide (N-terminally biotinylated synthetic peptide (KGSGSGRPRTSSFAEG) Upstate, #12-385) as substrate, 10 μl of test compound (test compounds were dissolved as 10 mM solutions in dimethylsulfoxide (DMSO) and subsequently diluted) and 100 nM ATP (including ^33P-ATP) in 100 μl of reaction buffer (50 mM HEPES, pH7,5; 3 mM MgCl2; 3 mM MnCl2; 3 μM Na-Orthovanadat; 1 mM DTT; 1 μg/ml PEG8000) for 60 minutes at 30° C. in 96 well microtiter plates. The reactions are terminated by adding 100 μl stopping buffer (5M NaCl, 35 mM EDTA pH 8.0) for 5 minutes. 190μl of the reaction mixture are transferred into streptavidin-coated Flashplates (Perkin Elmer, #SMP-103) and incubated for further 30 minutes at room temperature. The plates are washed 3 times by using washing buffer (0.9% NaCl). Relying on the incorporation of ^33P into the peptide substrate crosstide, the detection is based on the specific binding of the biotinylated peptide to the streptavidin-coated surface of scintillator-coated flash plates (NEN, USA; #SMP-103). This phosphorylation is measured by counting the plate for 60 sec. using a plate reader (Wallac Microbeta; Perkin Elmer, USA).

Each structure is given as a SMILES string.

T2 sequence (P31749 whole entry): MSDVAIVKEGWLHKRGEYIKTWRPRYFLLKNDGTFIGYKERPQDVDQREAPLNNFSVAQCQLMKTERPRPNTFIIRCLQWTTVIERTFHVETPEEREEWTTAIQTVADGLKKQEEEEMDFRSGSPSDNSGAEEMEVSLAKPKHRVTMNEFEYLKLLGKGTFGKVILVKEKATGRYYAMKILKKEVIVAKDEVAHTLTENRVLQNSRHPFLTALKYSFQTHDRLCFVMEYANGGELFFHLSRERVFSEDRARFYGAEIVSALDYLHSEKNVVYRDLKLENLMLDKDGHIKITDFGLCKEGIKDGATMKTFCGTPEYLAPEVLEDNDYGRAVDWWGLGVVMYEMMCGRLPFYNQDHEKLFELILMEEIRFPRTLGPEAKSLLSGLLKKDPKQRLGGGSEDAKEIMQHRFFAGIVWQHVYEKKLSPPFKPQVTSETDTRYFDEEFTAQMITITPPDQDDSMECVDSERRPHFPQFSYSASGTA
T1 sequence (P31749 107-480, stated change not applied): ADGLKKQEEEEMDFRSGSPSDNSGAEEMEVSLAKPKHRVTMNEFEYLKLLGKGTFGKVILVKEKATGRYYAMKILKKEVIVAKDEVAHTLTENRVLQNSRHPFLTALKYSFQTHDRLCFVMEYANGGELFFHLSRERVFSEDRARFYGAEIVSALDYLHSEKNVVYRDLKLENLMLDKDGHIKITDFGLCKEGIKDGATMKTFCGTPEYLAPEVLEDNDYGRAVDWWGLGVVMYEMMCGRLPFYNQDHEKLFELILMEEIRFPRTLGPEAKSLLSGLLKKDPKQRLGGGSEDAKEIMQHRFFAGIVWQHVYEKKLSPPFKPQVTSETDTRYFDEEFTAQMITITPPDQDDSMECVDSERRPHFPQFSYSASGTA
Method for MCF7 cells: The anti-proliferative activity of the compounds as described herein, is evaluated using MCF7 and MDA-MB-468 (ATCC HTB-22 and HTB-132) cell lines and the Alamar Blue (Resazurin) cell viability assay (O'Brien et al. Eur J Biochem 267, 5421-5426, 2000). Resazurin is reduced to the fluorescent resorufin by cellular dehydrogenase activity, correlating with viable, proliferating cells. Test compounds are dissolved as 10 mM solutions in DMSO and subsequently diluted. MCF7 or MDA-MB-434 cells were seeded into 96 well flat bottom plates at a density of 10000 cells/well (MCF7) or 5000 cells/well (MDA-MB-468) in a volume of 200 μl/well. 24 hours after seeding, 1 μl each of the compound dilutions are added into each well of the 96 well plates. Each compound dilution is tested as at least as duplicates. Wells containing untreated control cells were filled with 200 μl DMEM containing 0.5% v:v DMSO. The cells are then incubated with the substances for 48 hours at 37° C. in a humidified atmosphere containing 5% carbon dioxide. To determine cell viability, 20 μl of a Resazurin solution (Sigma; 90 mg/l) are added. After 4 hours incubation at 37° C. the fluorescence is measured at an extinction of 544 nm and an emission of 590 nm (Wallac Victor2; Perkin Elmer, USA). For the calculation of the cell viability the emission value from untreated cells is set as 100% viability and the emission rates of treated cells are set in relation to the values of untreated cells. Viabilities are expressed as % values. The corresponding IC50 values of the compounds for cytotoxic activity are determined from the concentration-effect curves by means of non-linear regression. The analysis of the data is performed using a biostatistical program (GraphPad Prism, USA).

Take `NCCCC(=O)Nc1ccc(Nc2nc(-c3cccc4c3oc3ccccc34)cc3ccnn23)cc1` [Example 24, 4-Amino-N-[4-(5-dibenzofuran-4-yl-pyrazolo[1,5-c]pyrimidin-7-ylamino)-phenyl]-butyramide]: the IC50 is at most 1.75 µM on GST-ΔPH-Akt1, at most 16.9 µM in the test on MCF7 cells and at most 4.03 µM in test [1].

On to `COc1cccc(-c2ccc(-c3cc4ccnn4c(Nc4ccc(NC(=O)c5ccc(CN)cc5)cc4)n3)cc2)c1` [Example 59, 4-Aminomethyl-N-{4-[5-(3′-methoxy-biphenyl-4-yl)-pyrazolo[1,5-c]pyrimidin-7-ylamino]-phenyl}-benzamide], for which the IC50 on GST-ΔPH-Akt1 was at most 1.75 µM; with MCF7 cells it was at most 16.9 µM; in test [1], at most 4.03 µM.

Take `O=C(Nc1cccc(Nc2nc(-c3cccc4c3oc3ccccc34)cc3ccnn23)c1)c1ccc2c(c1)CCNC2` [Example 63, 1,2,3,4-Tetrahydro-isoquinoline-6-carboxylic acid [3-(5-dibenzofuran-4-yl-pyrazolo[1,5-c]pyrimidin-7-ylamino)-phenyl]-amide]: the IC50 at GST-ΔPH-Akt1 was at most 1.75 µM; in the test on MCF7 cells it was at most 16.9 µM; in test [1], at most 4.03 µM.

`COc1cccc(-c2ccc(-c3cc4c(Br)cnn4c(Nc4ccc(NC(=O)c5ccc(CN)cc5)cc4)n3)cc2)c1` [Example 87, 4-Aminomethyl-N-{4-[3-bromo-5-(3′-methoxy-biphenyl-4-yl)-pyrazolo[1,5-c]pyrimidin-7-ylamino]-phenyl}-benzamide]: the IC50 at GST-ΔPH-Akt1 is at most 1.75 µM; in the test on MCF7 cells, at most 16.9 µM; in test [1], at most 4.03 µM.
